Data: patent US20250026752A1, “POSITIVE ALLOSTERIC MODULATORS OF THE MUSCARINIC ACETYLCHOLINE RECEPTOR M4” (Vanderbilt University, priority 2021, published 2025)
pEC50: −log10 of the molar value.

Target: T1, human mAChR M4 (Homo sapiens, UniProt P08173)
T1 construct: expressed in transfected cells; host or cells: CHO-K1 (ATCC), stably expressing hM4 and Gqi5
T1 sequence (P08173 1-479): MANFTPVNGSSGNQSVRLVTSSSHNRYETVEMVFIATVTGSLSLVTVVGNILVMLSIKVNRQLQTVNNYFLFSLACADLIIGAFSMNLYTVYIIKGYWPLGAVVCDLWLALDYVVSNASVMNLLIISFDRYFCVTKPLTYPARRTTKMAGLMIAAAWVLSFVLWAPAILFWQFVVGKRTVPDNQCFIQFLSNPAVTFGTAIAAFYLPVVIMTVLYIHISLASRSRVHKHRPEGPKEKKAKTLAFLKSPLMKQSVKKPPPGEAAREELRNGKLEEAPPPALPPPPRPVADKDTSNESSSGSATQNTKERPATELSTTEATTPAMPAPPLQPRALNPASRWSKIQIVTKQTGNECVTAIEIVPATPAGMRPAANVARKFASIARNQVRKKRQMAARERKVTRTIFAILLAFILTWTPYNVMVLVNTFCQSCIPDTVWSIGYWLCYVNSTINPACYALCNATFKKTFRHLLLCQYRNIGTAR
Assay: mAChR M4 cell-based functional assay: calcium flux (Fluo-4, FDSS), positive allosteric modulator activity on the EC20 acetylcholine response, hM4-Gqi5 CHO-K1 cells
Conditions: for Emax at 30 µM: CHO-K1, human M4; for pEC50: PAM activity on EC20 acetylcholine response, calcium flux, read-out: Human M4 EC50
Method: Human M4 cDNA, along with the chimeric G protein Gqi5, were transfected into Chinese hamster ovary (CHO-K1) cells purchased from the American Type Culture Collection using commercially available Lipofectamine 2000 transfection reagent (Dalby, B. et al., Methods (2004) 33(2), 95-103). hM4-Gqi5 cells were grown in Ham's F-12 medium containing 10% heat-inactivated fetal bovine serum (FBS), 20 mM […], 50 μg/mL G418 sulfate (CAS #108321-42-2), and 500 μg/mL Hygromycin B. rM4-Gqi5 cells were grown in DMEM containing 10% heat-inactivated FBS, 20 mM HEPES, 400 μg/mL G418 sulfate, and 500 μg/mL Hygromycin B.
For high throughput measurement of agonist-evoked increases in intracellular calcium, CHO-K1 cells stably expressing muscarinic receptors were plated in growth medium lacking G418 sulfate and hygromycin at 15,000 cells/20 μL/well in Greiner 384-well black-walled, tissue culture (TC)-treated, clear-bottom plates (VWR). Cells were incubated overnight at 37° C. and 5% C02. The next day, cells were washed using an ELX 405 (BioTek) with assay buffer; the final volume was then aspirated to 20 μL. Next, 20 μL of a 2.3 μM stock of Fluo-4/acetoxymethyl ester (Invitrogen, Carlsbad, CA), prepared as a 2.3 mM stock in DMSO and mixed in a 1:1 ratio with 10% (w/v) Pluronic F-127 and diluted in assay buffer, was added to the wells and the cell plates were incubated for 50 minutes at 37° C. and 5% C02. Dye was removed by washing with the ELX 405 and the final volume was aspirated to 20 μL. Compound master plates were formatted in an 11 point concentration-response curve (CRC) format (1:3 dilutions) in 100% DMSO with a starting concentration of 10 mM using a BRAVO liquid handler (Agilent). Test compound CRCs were then transferred to daughter plates (240 nL) using the Echo acoustic plate reformatter (Labcyte, Sunnyvale, CA) and then diluted into assay buffer (40 μL) to a 2× stock using a Thermo Fisher Combi (Thermo Fisher Scientific, Waltham, MA).
Calcium flux was measured using the Functional Drug Screening System (FDSS) 6000 or 7000 (Hamamatsu Corporation, Tokyo, Japan) as an increase in the fluorescent static ratio. Compounds were applied to cells (20 μL, 2×) using the automated system of the FDSS at 2-4 seconds into the protocol and the data were collected at 1 Hz. At 144 seconds, 10 μL of an EC20 concentration of the muscarinic receptor agonist acetylcholine was added (5×), followed by the addition of 12 μL of an EC80 concentration of acetylcholine at the 230 second time point (5×). Agonist activity was analyzed as a concentration-dependent increase in calcium mobilization upon compound addition. Positive allosteric modulator activity was analyzed as a concentration-dependent increase in the EC20 acetylcholine response. With the acetylcholine EC20 set as baseline, the test compound EC50 is determined as the concentration that produces an increase above baseline of 50% of the maximum increase in acetylcholine response elicted by the test compound. Antagonist activity was analyzed as a concentration-dependent decrease in the ECso acetylcholine response. Concentration-response curves were generated using a four-parameter logistical equation in XLFit curve fitting software (IDBS, Bridgewater, NJ) for Excel (Microsoft, Redmond, WA) or Prism (GraphPad Software, Inc., San Diego, CA).
Compounds were synthesized as described above. Activity (EC50 and Emax) was determined in the mAChR M4 cell-based functional assay as described above and the data are shown in Table 4. The compound numbers correspond to the compound numbers used in Examples 1-33 and Tables 1, 2, and 3.

Row | Structure (SMILES) | Emax at 30 µM (% ACh maximum at 30 μM) | pEC50 (human M4) | Emax (%) (human M4, % ACh maximum at 30 μM)
1 | CC1CN(c2ncnc3ccc(F)cc23)Cc2cc(C(F)(F)F)cnc21 (single isomer, unassigned) [Compound 117, 6-fluoro-4-[(8R or S)-8-methyl-3-(trifluoromethyl)-7,8-dihydro-5H-1,6-naphthyridin-6-yl]quinazoline] | – | 6.40 | 100%
2 | Fc1ccc2ncnc(N3CCc4ncc(-c5cnn(C6CC6)c5)cc4C3)c2c1 [Compound 1, 4-[3-(1-cyclopropylpyrazol-4-yl)-7,8-dihydro-5H-1,6-naphthyridin-6-yl]-6-fluoro-quinazoline] | 99% | 6.89 | –
3 | Cc1nc(N2CCc3ncc(-c4ccc(C(F)(F)F)nc4)cc3C2)c2cc(F)ccc2n1 [Compound 3, 6-fluoro-2-methyl-4-[3-[6-(trifluoromethyl)-3-pyridyl]-7,8-dihydro-5H-1,6-naphthyridin-6-yl]quinazoline] | 75% | 6.34 | –
4 | Cc1nc(N2CCc3ncc(-c4ccc(C(F)(F)F)nc4)cc3C2)c2cc(Cl)ccc2n1 [Compound 4, 6-chloro-2-methyl-4-[3-[6-(trifluoromethyl)-3-pyridyl]-7,8-dihydro-5H-1,6-naphthyridin-6-yl]quinazoline] | 57% | 6.07 | –
5 | Cc1nc(N2CCc3ncc(-c4cnn(C5CC5)c4)cc3C2)c2cc(F)ccc2n1 [Compound 5, 4-[3-(1-cyclopropylpyrazol-4-yl)-7,8-dihydro-5H-1,6-naphthyridin-6-yl]-6-fluoro-2-methyl-quinazoline] | 80% | 6.47 | –
6 | Cc1nc(N2CCc3ncc(-c4cn(C)nc4C)cc3C2)c2cc(Cl)ccc2n1 [Compound 7, 6-chloro-4-[3-(1,3-dimethylpyrazol-4-yl)-7,8-dihydro-5H-1,6-naphthyridin-6-yl]-2-methyl-quinazoline] | 93% | 6.60 | –
7 | Cc1nn(C)cc1-c1cnc2c(c1)CN(c1nc(Cl)nc3ncccc13)CC2 [Compound 9, 2-chloro-4-[3-(1,3-dimethylpyrazol-4-yl)-7,8-dihydro-5H-1,6-naphthyridin-6-yl]pyrido[2,3-d]pyrimidine] | 66% | 5.60 | –
8 | Cc1ccc2ncnc(N3CCc4ncc(-c5cnn(C6CC6)c5)cc4C3)c2c1 [Compound 12, 4-[3-(1-cyclopropylpyrazol-4-yl)-7,8-dihydro-5H-1,6-naphthyridin-6-yl]-6-methyl-quinazoline] | 114% | 6.64 | –
9 | COc1ccc2ncnc(N3CCc4ncc(-c5cn(C)nc5C)cc4C3)c2c1 [Compound 13, 4-[3-(1,3-dimethylpyrazol-4-yl)-7,8-dihydro-5H-1,6-naphthyridin-6-yl]-6-methoxy-quinazoline] | 109% | 6.43 | –
10 | Cc1ccc2ncnc(N3CCc4ncc(-c5cn(C)nc5C)cc4C3)c2c1 [Compound 14, 4-[3-(1,3-dimethylpyrazol-4-yl)-7,8-dihydro-5H-1,6-naphthyridin-6-yl]-6-methyl-quinazoline] | 117% | 6.80 | –
11 | Fc1ccc2ncnc(N3CCc4ncc(-c5ccc(C(F)(F)F)nc5)cc4C3)c2c1 [Compound 16, 6-fluoro-4-[3-[6-(trifluoromethyl)-3-pyridyl]-7,8-dihydro-5H-1,6-naphthyridin-6-yl]quinazoline] | 89% | 6.44 | –
12 | Clc1ccc2ncnc(N3CCc4ncc(-c5cnn(C6CC6)c5)cc4C3)c2c1 [Compound 17, 6-chloro-4-[3-(1-cyclopropylpyrazol-4-yl)-7,8-dihydro-5H-1,6-naphthyridin-6-yl]quinazoline] | 78% | 6.92 | –
13 | Cc1nc(N2CCc3ncc(-c4cnn(C5CC5)c4)cc3C2)c2cc(Cl)ccc2n1 [Compound 19, 6-chloro-4-[3-(1-cyclopropylpyrazol-4-yl)-7,8-dihydro-5H-1,6-naphthyridin-6-yl]-2-methyl-quinazoline] | 80% | 6.41 | –
14 | Cc1nc(N2CCc3ncc(-c4ccnn4C)cc3C2)c2cc(F)ccc2n1 [Compound 20, 6-fluoro-2-methyl-4-[3-(2-methylpyrazol-3-yl)-7,8-dihydro-5H-1,6-naphthyridin-6-yl]quinazoline] | 86% | 6.82 | –

Further molecules by rising pEC50 (human M4), results first:

Row | Emax at 30 µM (% ACh maximum at 30 μM) | pEC50 (human M4) | Emax (%) (human M4, % ACh maximum at 30 μM) | Structure (SMILES)
15 | 90% | 6.92 | – | Cc1nc(N2CCc3ncc(-c4cn(C)nc4C)cc3C2)c2cc(F)ccc2n1 [Compound 10, 4-[3-(1,3-dimethylpyrazol-4-yl)-7,8-dihydro-5H-1,6-naphthyridin-6-yl]-6-fluoro-2-methyl-quinazoline]
16 | 83% | 7.00 | – | Cc1nn(C)cc1-c1cnc2c(c1)CN(c1ncnc3ccc(F)cc13)CC2 [Compound 11, 4-[3-(1,3-dimethylpyrazol-4-yl)-7,8-dihydro-5H-1,6-naphthyridin-6-yl]-6-fluoro-quinazoline]
17 | 113% | 7.15 | – | CC1CN(c2ncnc3ccc(F)cc23)Cc2cc(C(F)(F)F)cnc21 (single isomer, unassigned) [Compound 116, 6-fluoro-4-[(8R or S)-8-methyl-3-(trifluoromethyl)-7,8-dihydro-5H-1,6-naphthyridin-6-yl]quinazoline]
18 | 88% | 7.15 | – | Cc1nn(C)cc1-c1cnc2c(c1)CN(c1ncnc3ccc(Cl)cc13)CC2 [Compound 6, 6-chloro-4-[3-(1,3-dimethylpyrazol-4-yl)-7,8-dihydro-5H-1,6-naphthyridin-6-yl]quinazoline]
19 | 93% | 7.22 | – | CC1CN(c2ncnc3ccc(F)cc23)Cc2cc(C(F)(F)F)cnc21 (racemic) [Compound 115, 6-fluoro-4-[8-methyl-3-(trifluoromethyl)-7,8-dihydro-5H-1,6-naphthyridin-6-yl]quinazoline]
20 | 86% | 7.22 | – | Cc1noc(C)c1-c1cnc2c(c1)CN(c1ncnc3ccc(Cl)cc13)CC2 [Compound 2, 4-[6-(6-chloroquinazolin-4-yl)-7,8-dihydro-5H-1,6-naphthyridin-3-yl]-3,5-dimethyl-isoxazole]
21 | 87% | 7.22 | – | Cc1nn(C)cc1-c1cnc2c(c1)CN(c1ncnc3cc(F)c(F)cc13)CC2 [Compound 8, 4-[3-(1,3-dimethylpyrazol-4-yl)-7,8-dihydro-5H-1,6-naphthyridin-6-yl]-6,7-difluoro-quinazoline]
22 | 105% | 7.40 | – | Cn1cc(-c2cnc3c(c2)CN(c2ncnc4ccc(F)cc24)CC3)cn1 [Compound 15, 6-fluoro-4-[3-(1-methylpyrazol-4-yl)-7,8-dihydro-5H-1,6-naphthyridin-6-yl]quinazoline]
23 | 70% | 7.40 | – | Cn1nccc1-c1cnc2c(c1)CN(c1ncnc3ccc(F)cc13)CC2 [Compound 18, 6-fluoro-4-[3-(2-methylpyrazol-3-yl)-7,8-dihydro-5H-1,6-naphthyridin-6-yl]quinazoline]
